14 compounds from patent US6852761B2, “Polycyclic aryl and heteroaryl substituted benzenes useful for selective inhibition of the coagulation cascade” (Pharmacia Corporation, priority 2000, dated 2005) can be followed below.

The target in one experiment is T1, human factor Xa (Homo sapiens, UniProt P00742).
T1 construct: leads from XII to XIIa to XIa to IXa and to the conversion of X to Xa; purchased Enzyme Research Laboratories, South Bend Ind
As to the kind of experiment: Xa Assay. It counts as biochemical. As for the experimental part:
0.3 nM human factor Xa and 0.15 mM N-α-Benzyloxycarbonyl-D-arginyl-L-glycyl-L-arginine-p-nitroaniline-dihydrochloride (S-2765) are added to a 96-well assay plate containing either inhibitor or buffer (50 mM Tris-HCl, pH 8.0, 100 mM NaCl, 0.1% BSA). The reaction, in a final volume of 100 ul is measured immediately at 405 nm to determine background absorbance. The plate is incubated at room temperature for 60 min, at which time the rate of hydrolysis of the substrate is measured by monitoring the reaction at 405 nm for the release of p-nitroaniline. Percent inhibition of Xa activity is calculated from OD405 nm value from the experimental and control sample.
Recombinant soluble TF, consisting of amino acids 1-219 of the mature protein sequence was expressed in E. coli and purified using a Mono Q Sepharose FPLC. Recombinant human VIIa was purchased from American Diagnostica, Greenwich Conn. and chromogenic substrate N-Methylsulfonyl-D-phe-gly-arg-p-nitroaniline was prepared by American Peptide Company, Inc., Sunnyvale, Calif. Factor Xa was obtained from Enzyme Research Laboratories, South Bend Ind., thrombin from Calbiochem, La Jolla, Calif., and trypsin and L-BAPNA from Sigma, St. Louis Mo. The chromogenic substrates S-2765 and S-2238 were purchased from Chromogenix, Sweden.

The target in experiment [1] is T2, recombinant soluble tissue factor and recombinant human factor VIIa (TF-VIIA) (Homo sapiens, UniProt P08709).
T2 construct: conversion of coagulation factor VII to VIIa by Xa; purchased American Diagnostica, Greenwich Conn; (factor VIIa); host or cells: soluble TF made in house in E. coli
As to the kind of experiment: TF-VIIa Assay. In kind it is biochemical.
Protocol: In this assay 100 nM recombinant soluble tissue factor and 2 nM recombinant human factor VIIa are added to a 96-well assay plate containing 0.4 mM of the substrate, N-Methylsulfonyl-D-phe-gly-arg-p-nitroaniline and either inhibitor or buffer (5 mM CaCl2,50 mM Tris-HCl, pH 8.0, 100 mM NaCl, 0.1% BSA). The reaction, in a final volume of 100 ul is measured immediately at 405 nm to determine background absorbance. The plate is incubated at room temperature for 60 min, at which time the rate of hydrolysis of the substrate is measured by monitoring the reaction at 405 nm for the release of p-nitroaniline. Percent inhibition of TF-VIIa activity is calculated from OD405nm value from the experimental and control sample.

T2 sequence (P08709 213-466 limits assumed): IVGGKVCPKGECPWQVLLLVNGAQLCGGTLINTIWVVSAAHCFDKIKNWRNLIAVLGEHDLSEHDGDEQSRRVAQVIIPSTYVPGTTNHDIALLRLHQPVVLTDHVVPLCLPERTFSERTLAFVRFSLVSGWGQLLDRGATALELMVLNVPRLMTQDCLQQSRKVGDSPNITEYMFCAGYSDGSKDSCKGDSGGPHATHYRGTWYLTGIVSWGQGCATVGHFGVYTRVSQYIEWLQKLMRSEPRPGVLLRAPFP
T2 sequence (P08709 61-212 limits assumed): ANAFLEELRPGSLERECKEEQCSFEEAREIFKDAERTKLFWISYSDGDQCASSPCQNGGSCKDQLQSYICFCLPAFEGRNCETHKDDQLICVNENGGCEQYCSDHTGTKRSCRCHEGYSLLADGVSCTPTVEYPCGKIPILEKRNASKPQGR
T2 sequence (P13726 33-251 partner limits assumed): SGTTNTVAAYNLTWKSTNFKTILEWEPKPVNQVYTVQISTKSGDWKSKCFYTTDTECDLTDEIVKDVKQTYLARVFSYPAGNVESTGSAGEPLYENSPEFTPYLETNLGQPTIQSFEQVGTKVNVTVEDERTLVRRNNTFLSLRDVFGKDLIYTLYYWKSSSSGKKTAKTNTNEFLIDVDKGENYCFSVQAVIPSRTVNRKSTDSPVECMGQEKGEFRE
T1 sequence (P00742 235-488 limits assumed): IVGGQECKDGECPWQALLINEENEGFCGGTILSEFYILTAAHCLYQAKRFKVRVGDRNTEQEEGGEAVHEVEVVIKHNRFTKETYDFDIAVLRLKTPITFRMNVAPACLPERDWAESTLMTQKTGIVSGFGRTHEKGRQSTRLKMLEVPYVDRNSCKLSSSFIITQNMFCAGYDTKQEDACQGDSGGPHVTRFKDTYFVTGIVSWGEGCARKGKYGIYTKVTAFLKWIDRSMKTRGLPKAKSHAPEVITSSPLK
T1 sequence (P00742 41-179 limits assumed): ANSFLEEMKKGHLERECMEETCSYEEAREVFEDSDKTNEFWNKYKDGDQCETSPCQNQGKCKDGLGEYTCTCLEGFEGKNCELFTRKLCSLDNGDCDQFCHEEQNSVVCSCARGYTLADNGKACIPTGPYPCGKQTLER

`N=C(N)c1ccc(CNC(=O)Cc2c(-c3ccccc3)ccc(NCCc3ccccc3)c2O)cc1` [Example 19] showed an IC50 on human factor Xa of over 30 µM.
For the compound `CN(C)c1ccc(CNC(=O)c2cc(NS(=O)(=O)Cc3ccccc3)ccc2Sc2ccccc2)cc1` [Example 2], the concentration for half-maximal inhibition (IC50) (in experiment [1]; against human factor Xa) was over 30 µM each time.
For the compound `O=C(Cc1c(F)ccc(NS(=O)(=O)Cc2ccccc2)c1F)NCCCn1ccnc1` [Example 12], the half-maximal inhibitory concentration (IC50) (in experiment [1]; on human factor Xa) was over 30 µM throughout.
Regarding `O=C(NCC1CCNCC1)c1cc(NS(=O)(=O)Cc2ccccc2)ccc1Sc1ccccc1` [Example 1], in experiment [1], the IC50 was over 30 µM.
For `CN(C)c1ccc(CNC(=O)Cc2c(F)ccc(NS(=O)(=O)Cc3ccccc3)c2F)cc1` [Example 10], the IC50 in experiment [1] was over 30 µM.
Turning to `O=C(NCc1ccncc1)c1cc(NS(=O)(=O)Cc2ccccc2)ccc1Sc1ccccc1` [Example 3], the half-inhibitory concentration (IC50) (in experiment [1]; at human factor Xa) was over 30 µM each time.
With `N=C(N)c1ccc(CNC(=O)c2cc(NS(=O)(=O)Cc3ccccc3)ccc2Sc2ccccc2)cc1` [Example 4], the half-maximal inhibitory concentration (IC50) (in experiment [1]; against human factor Xa) was over 30 µM in each case.
On to `O=C(Cc1c(F)ccc(NS(=O)(=O)Cc2ccccc2)c1F)NCc1ccncc1` [Example 11], for which the IC50 in experiment [1] is over 30 µM.
For `N=C(N)NCCCCCNC(=O)Cc1c(F)ccc(NS(=O)(=O)Cc2ccccc2)c1F` [Example 15], the IC50 (in experiment [1]; against human factor Xa) was over 30 µM in each case.
`N=C(N)c1ccc(CNC(=O)Cc2c(-c3ccccc3)ccc(NCCc3ccccc3)c2F)cc1` [Example 17] returned an IC50 against human factor Xa of over 30 µM.
`COc1c(NC(C)C)ccc(-c2ccccc2)c1CC(=O)NCc1ccc(C(=N)N)cc1` [Example 22] had a concentration for half-maximal inhibition (IC50) at human factor Xa of over 30 µM.
Consider `O=C(Cc1c(F)ccc(NS(=O)(=O)Cc2ccccc2)c1F)NCC1CCNCC1` [Example 9], for which the concentration for half-maximal inhibition (IC50) (in experiment [1]; against human factor Xa) was over 30 µM each time.
Take `N=C(N)c1cccc(CNC(=O)Cc2c(F)ccc(NS(=O)(=O)Cc3ccccc3)c2F)c1` [Example 13]: the IC50 in experiment [1] was over 30 µM.
For `N=C(N)c1ccc(CNC(=O)Cc2c(F)ccc(NS(=O)(=O)Cc3ccccc3)c2F)cc1` [Example 14], the concentration for half-maximal inhibition (IC50) (in experiment [1]; against human factor Xa) was over 30 µM each time.

The term IC50 denotes the concentration that gives 50% inhibition.
